Assay results as given in ChEMBL document CHEMBL1938285, “Novel inhibitors of Mycobacterium tuberculosis dTDP-6-deoxy-L-lyxo-4-hexulose reductase (RmlD) identified by virtual screening” (Bioorg Med Chem Lett, 2011).
≈ marks a conversion by molar mass, not a printed value. Calls of active or inactive are those of the source. No cut-off for these calls is given here.

Experiments:
[1] = target: T1, dTDP-4-dehydrorhamnose reductase (Mycobacterium tuberculosis) (UniProt P9WH09); assay: Inhibition of Mycobacterium tuberculosis RmlD assessed as inhibition of dTDP-beta-6-deoxy-L-lyxo-4-hexulose to dTDP-beta-L-rhamnose conversion at 10 ug/ml
T1 sequence (whole entry): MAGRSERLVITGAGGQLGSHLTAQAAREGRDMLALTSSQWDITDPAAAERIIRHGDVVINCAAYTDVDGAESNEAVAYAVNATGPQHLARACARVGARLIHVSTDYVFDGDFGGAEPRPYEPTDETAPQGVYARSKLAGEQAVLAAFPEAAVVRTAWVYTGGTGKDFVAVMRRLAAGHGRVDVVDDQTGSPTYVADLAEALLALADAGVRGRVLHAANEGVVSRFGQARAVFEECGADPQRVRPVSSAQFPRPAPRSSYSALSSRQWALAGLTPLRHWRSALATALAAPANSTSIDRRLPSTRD

[2] = tested on: Mycobacterium tuberculosis; assay: Antimycobacterial activity against Mycobacterium tuberculosis H37Rv after 7 days by microbroth dilution-resazurin assay; assay type: functional; conditions: 168 h
[3] = target: T2, dTDP-4-dehydrorhamnose reductase (Mycobacterium tuberculosis, UniProt P9WH09); assay: Inhibition of Mycobacterium tuberculosis RmlD assessed as inhibition of dTDP-beta-6-deoxy-L-lyxo-4-hexulose to dTDP-beta-L-rhamnose conversion
T2 sequence (P9WH09 whole entry): T1 sequence (whole entry)

Structure (SMILES): O=c1oc2c(cc1O)oc(=O)c1cc(O)c(O)c(O)c12
- inhibition [1]: inactive

Structure (SMILES): N=C(N)c1ccc(/C=C/c2ccc(C(=N)N)cc2O)cc1
- inhibition [1]: inactive

Structure (SMILES): Oc1ccc2c(O)c3ccccc3cc2c1O
- inhibition [1]: inactive

Structure (SMILES): O=C1CC(c2ccccc2)c2ccc(O)cc2O1 (configuration not stated)
- inhibition [1]: inactive

Structure (SMILES): O=c1ccc2c(-c3ccccc3O)c3ccc(O)cc3oc-2c1
- inhibition [1]: inactive

Structure (SMILES): Oc1ccc(-c2ccc3ccccc3c2)cc1
- inhibition [1]: inactive

Structure (SMILES): C=Cc1cc(O)cc2c1-c1ccc(O)c(C)c1CC2 [EFFUSOL]
- MIC [2]: 20 µg/mL (≈ 79.3 µM)

Structure (SMILES): O=C(OCC(O)COC(=O)c1cccnc1)c1cccnc1
- inhibition [1]: inactive

Structure (SMILES): NC(=S)c1cn([C@@H]2O[C@H](CO)[C@@H](O)[C@H]2O)c2ncnc(N)c12
- inhibition [1]: inactive

Structure (SMILES): O=C(c1ccc(O)cc1)c1ccc(C(=O)c2ccc(O)cc2)cc1
- inhibition [1]: inactive

Structure (SMILES): O=C1C=CC=CC1=C1c2cc(O)c(O)cc2Oc2cc(O)c(O)cc21
- IC50 [3]: 2100 nM
- MIC [2]: 133 µg/mL (≈ 395 µM)

Structure (SMILES): C=Cc1c(C)c(O)cc2c1-c1ccc(O)c(C)c1CC2
- inhibition [1]: inactive

Structure (SMILES): O=C1C(Cl)=C(Nc2ccc3c[nH]nc3c2)C(=O)c2ccccc21
- inhibition [1]: inactive

Structure (SMILES): CC(Cc1ccc(O)c(O)c1)C(C)Cc1ccc(O)c(O)c1 (configuration not stated)
- inhibition [1]: inactive

Structure (SMILES): COc1cc(NC(=O)c2cc3ccccc3cc2O)c(OC)cc1Cl
- inhibition [1]: inactive

Structure (SMILES): O=C(/C=C/c1ccc2ccccc2n1)c1cc(Cl)ccc1O
- inhibition [1]: inactive

Structure (SMILES): CCC(c1ccccc1)C(CC)c1ccc(O)c(O)c1 (configuration not stated)
- inhibition [1]: inactive

Structure (SMILES): Cc1c(Cl)cccc1Nc1ncccc1C(=O)OCC(O)CO (configuration not stated)
- inhibition [1]: inactive

Structure (SMILES): Cc1cc(=O)oc2cc(O)c(O)cc12
- inhibition [1]: inactive

Structure (SMILES): Oc1ccc(C(c2ccc(O)cc2)c2ccc(O)cc2)cc1
- inhibition [1]: inactive

Structure (SMILES): C[C@@H]1O[C@@H](Oc2c(-c3cc(O)c(O)c(O)c3)oc3cc(O)cc(O)c3c2=O)[C@H](O)[C@H](O)[C@H]1O
- inhibition [1]: inactive

Structure (SMILES): O=C1C=C(c2ccccc2)OC(=O)C1C(=O)c1ccccc1 (configuration not stated)
- inhibition [1]: inactive

Structure (SMILES): N#Cc1cnn2ccn([C@@H]3O[C@H](CO)[C@@H](O)[C@H]3O)c12
- inhibition [1]: inactive

Structure (SMILES): Cc1cc2c(cc1C)NC1=C(N2)OC(c2cccc(O)c2)C1=O (configuration not stated)
- inhibition [1]: inactive

Structure (SMILES): Cn1c(=O)c2nc(CNc3ccc(C(=O)O)cc3)[nH]c2n(C)c1=O
- inhibition [1]: inactive

Structure (SMILES): CCC(c1ccc(O)cc1)C(CC)c1ccc(O)c(O)c1 (configuration not stated)
- inhibition [1]: inactive

Structure (SMILES): CCC(c1ccccc1)C(CC)c1cc(O)c(O)c(O)c1 (configuration not stated)
- inhibition [1]: inactive

Structure (SMILES): O=c1cc2oc3cc(O)c(O)cc3c(-c3ccccc3)c-2cc1O
- IC50 [3]: 900 nM
- MIC [2]: 200 µg/mL (≈ 624 µM)

Structure (SMILES): Cc1c2cc(O)c(=O)cc-2oc2cc(O)c(O)cc12
- IC50 [3]: 15000 nM
- MIC [2]: 62 µg/mL (≈ 240 µM)

Structure (SMILES): Cc1ccc(NC(=O)Nc2cccnc2)cc1NC(=O)Nc1cccnc1
- inhibition [1]: inactive

Structure (SMILES): CCC(CC)C(c1ccc(O)cc1)c1ccc(O)cc1
- inhibition [1]: inactive

Structure (SMILES): O=C(O)/C=C/c1c2ccc(=O)c(O)c-2oc2c(O)c(O)ccc12
- inhibition [1]: inactive

Structure (SMILES): CSc1ncc2ncn([C@@H]3O[C@H](CO)[C@@H](O)[C@H]3O)c2n1
- inhibition [1]: inactive

Structure (SMILES): COc1cc(C(=O)C(=O)c2cc(OC)c(O)c(OC)c2)cc(OC)c1O
- inhibition [1]: inactive

Structure (SMILES): COc1cccc2c1[C@H](CO)N1[C@H](C#N)[C@@H]3C[C@H](C(=O)O)[C@@H]([C@@H]1C2)N3C
- inhibition [1]: inactive

Structure (SMILES): NC(=O)CC[C@@H](C(=O)O)N1C(=O)c2ccc(O)cc2C1=O
- inhibition [1]: inactive

Structure (SMILES): Oc1cc(C(c2ccccc2)c2ccccc2)c2ccccc2c1O
- inhibition [1]: inactive

Structure (SMILES): COc1ccccc1/C=C/C(=O)/C=C/c1ccccc1O
- inhibition [1]: inactive

Structure (SMILES): Cc1cc(O)c2cc3c(O)c(O)ccc3cc2c1
- inhibition [1]: inactive

Structure (SMILES): COc1cc(/N=N/c2c(O)nc3ccccc3c2O)c(OC)cc1/N=N/c1ccccc1
- inhibition [1]: inactive

Structure (SMILES): O[C@@H]1[C@@H](OCc2ccccc2)OC[C@H](O)[C@@H]1O
- inhibition [1]: inactive

Structure (SMILES): COc1ccccc1NC(=O)c1cc2cc(Br)ccc2cc1O
- inhibition [1]: inactive

Structure (SMILES): O=C(/C=C/c1ccc(O)c(O)c1)O[C@@H]1C[C@@](OC(=O)/C=C/c2ccc(O)c(O)c2)(C(=O)O)C[C@@H](O)[C@@H]1O
- inhibition [1]: inactive

Structure (SMILES): CC(=O)Oc1c(C)c(OC(C)=O)c2c(c1C(C)=O)OC1CC(=O)C(C(C)=O)=C(O)C21C (configuration not stated)
- inhibition [1]: inactive

Structure (SMILES): Oc1ccc(C(O)(c2ccccc2)c2ccc(O)c3ccccc23)c2ccccc12
- inhibition [1]: inactive

Structure (SMILES): CC(c1cccc(O)c1)C(C)c1cccc(O)c1 (configuration not stated)
- inhibition [1]: inactive

Structure (SMILES): COc1ccc(NC(=O)c2cc3ccc4c5ccccc5[nH]c4c3cc2O)cc1
- inhibition [1]: inactive

Structure (SMILES): CC(=O)OCc1cc(-c2nc3ccccc3nc2O)nn1-c1ccc(Cl)cc1
- inhibition [1]: inactive

Structure (SMILES): COc1ccc(OC)c(NC(=O)c2cc3oc4ccccc4c3cc2O)c1
- inhibition [1]: inactive
